This passage reports DC50 results from patent US20210198256A1, “COMPOUNDS FOR THE DEGRADATION OF BRD9 OR MTH1” (C4 Therapeutics, Inc., priority 2018, published 2021).

The structures appear in SMILES notation.

In this test the test system is SMARTCAR-MTH1-wt-HiBiT (Jurkat.7 cells). The experiment in a line: HiBit Lytic Assay (HiBit DC50, MTH1 degraders of Table 2). It counts as cell-based, human. The note with it: Jurkat.7 SMARTCAR-MTH1-wt-HiBiT cells, compound treatment time 4 hr, 11-point half log dose response. As for the experimental part:
Example 3. HiBit Lytic Assay
• Compound is made at 10 mM, half log dilution, 11 points. • MDR plates can also be ordered from Frontier with same format. • 1. Barcode a 384LDV plate (384-well Low Dead Volume Microplate, Labcyte LP-0200) (Echo compatible) on the left side. • 2. Transfer 13.6 μL of 10 mM compound into column 1 of LDV plate (Labcyte). • 3. Fill column 2-11 and column 23 of MDR plate with 9.30 μL of DMSO. • 4. Serial dilute 3.16 fold from column 1 to 2 by transferring 4.30 μL from column 1 to column 2, and so on to column 11. *Change tip in every dilution to prevent compound carryover effect! • 5. Seal the plate with Plate Sealer, then store the MDR plate at room temperature for short term storage and in −20° C. for long term storage.
• Cells are treated with 30 nL of each compound at 10 mM, half log dilution, 11 points with final concentration of 1000 nM or 833 nM, half log dilution, 11 points, in duplicates. Final DMSO concentration is 0.1%. • 1. Barcode the plates made on the left side and label the plates with silver marker. • 2. Dispense with the following scheme: • a. 30 nL of compound into corresponding wells in cell plates via Echo550 with “MDR32_HiBiT16_30 nL”. Top concentration will be 1000 nM. • 3. Seal the plate with Plate Sealer.
• Cells are dispensed at density specified in Cell Line Table in 384-well microplate. • 1. Culture cells to between 50-80% of confluence in sterile culture flasks of appropriate size. • 2. For Adherent Cell Lines: • a. Aspirate off growth media in culture flask, and wash off the Phenol Red media with 5 mL of 1×PBS. • b. Add 5 mL of Trypsin to the cells, incubate at 37° C. for 5 minutes. • c. Add 5 mL of growth media to the trypsinzed cells, and resuspend. • 3. Remove 10 μL of cells, and resuspend the cells with 10 μL of Trypan Blue. Insert the solution to counting chamber slide, and count the cells via cell counter. • 4. Adjust the cell concentration to specified plating density, and strain the cells with cell strainer. • 5. Dispense the cells via E1-ClipTip™ Electronic Multichannel Pipettes or Multidrop™ Combi Reagent Dispenser with Standard tube dispensing cassette: • a. Prime the cassette with 10-20 mL of ddH2O. • b. Prime the cassette with 10-20 mL of cells. • c. Dispense the cells at low speed for 30 μL/well in Corning® 384 Well Low Flange Black Flat Bottom Polystyrene TC-Treated Microplate. • d. Wash the cassette with 10-20 mL of ddH2O, follow by 10-20 mL of 70% EtOH, then again with 10-20 mL of ddH2O. • 6. Incubate the plates at 37° C.×compound treatment time.
• 1. If not already, bring Nano-Glo® HiBiT Lytic Buffer to room temperature. • 2. Determine the amount of reagent needed. A volume of reagent equal to the volume of media in the well should be added (i.e. 30 μL of cells will need 30 μL of HiBiT Lytic reagent). • 3. Into a given volume of buffer, dilute the substrate 50-fold and the LgBiT protein 100-fold. For example, to make 10 ml of reagent, add the following: • 10 ml Nano-Glo® HiBiT Lytic Buffer • 200 μl Nano-Glo® HiBiT Lytic Substrate • 100 μl LgBiT Protein • The reagent should be reconstituted immediately before use. However, once reconstituted, it should take about 4 hours for the activity to decrease 10%. • 4. Cool down the cell plate to room temperature for 10-15 minutes without lid. • 5. Dispense the HiBiT Lytic Reagent via E1-ClipTip™ Electronic Multichannel Pipettes or Multidrop™ Combi Reagent Dispenser with Standard tube dispensing cassette: • a. Prime the cassette with 10-20 mL of ddH2O. • b. Prime the cassette with 10-20 mL of CTG 2.0. • c. Dispense the HiBiT Lytic Reagent at medium speed for 30 μL/well in cell plate to column 1-23 (column 24 will be used as plate background). • d. Wash the cassette with 10-20 mL of ddH2O, follow by 10-20 mL of 70% EtOH, then again with 10-20 mL of ddH2O. • 6. Incubate the cell plate at room temperature for 10 minutes without lid. • 7. […]
For orientation: The HiBiT peptide binds its large partner to form an active luciferase.
By DC50 is commonly meant the concentration giving 50% degradation. The low end stands for degradation at low concentration, the high end for degradation only at high concentration. `CNC(=O)c1cnc2cc(OC)c(-c3ccc(C(=O)NCCCCNC(=O)C(C)Nc4cccc5c4C(=O)N(C4CCC(=O)NC4=O)C5=O)nc3)cc2c1Nc1ccccc1` (stereo in doubt) [Compound 384, 6-(6-((4-((2S)-2-((2-(2,6-dioxopiperidin-3-yl)-1,3-dioxoisoindolin-4-yl)amino)propanamido)butyl)carbamoyl)pyridin-3-yl)-7-methoxy-N-methyl-4-(phenylamino)quinoline-3-carboxamide] showed a DC50 of under 100 nM.

The compound `NC(=O)c1cnc2ccc(-c3ccc(C(=O)NCCCCNC(=O)COc4cccc5c4C(=O)N(C4CCC(=O)NC4=O)C5=O)cc3)cc2c1Nc1ccccc1` (stereo not shown) [Compound 300, 4-anilino-6-[4-[4-[[2-[2-(2,6-dioxo-3-piperidyl)-1,3-dioxo-isoindolin-4-yl]oxyacetyl]amino]butylcarbamoyl]phenyl]quinoline-3-carboxamide] showed a DC50 of under 100 nM.

In the case of `CN(CC(=O)NCCCCNC(=O)c1ccc(-c2ccc3ncc(C(N)=O)c(Nc4ccccc4)c3c2)cc1)c1cccc2c1C(=O)N(C1CCC(=O)NC1=O)C2=O` (stereo not shown) [Compound 301, 4-anilino-6-[4-[4-[[2-[[2-(2,6-dioxo-3-piperidyl)-1,3-dioxo-isoindolin-4-yl]-methyl-amino]acetyl]amino]butylcarbamoyl]phenyl]quinoline-3-carboxamide], the DC50 is under 100 nM.

In turn, `NC(=O)c1cnc2ccc(-c3ccc(C(=O)NCCCCNC(=O)CNc4cccc5c4C(=O)N(C4CCC(=O)NC4=O)C5=O)cc3)cc2c1Nc1ccccc1` (stereo not shown) [Compound 302, 6-(4-((4-(2-((2-(2,6-dioxopiperidin-3-yl)-1,3-dioxoisoindolin-4 yl)amino)acetamido)butyl)carbamoyl)phenyl)-4-(phenylamino)quinoline-3-carboxamide] yielded a DC50 of under 100 nM.

`NC(=O)c1cnc2ccc(-c3ccc(C(=O)NCCCCNC(=O)CNc4cccc5c4CN(C4CCC(=O)NC4=O)C5=O)cc3)cc2c1Nc1ccccc1` (stereo not shown) [Compound 303, 4-anilino-6-[4-[4-[[2-[[2-(2,6-dioxo-3-piperidyl)-1-oxo-isoindolin-4-yl]amino]acetyl]amino]butylcarbamoyl]phenyl]quinoline-3-carboxamide] displayed a DC50 of under 100 nM.

Compound `NC(=O)c1cnc2ccc(-c3ccc(C(=O)NCCCNC(=O)COc4cccc5c4C(=O)N(C4CCC(=O)NC4=O)C5=O)cc3)cc2c1Nc1ccccc1` (stereo not shown) [Compound 306, 6-(4-((3-(2-((2-(2,6-dioxopiperidin-3-yl)-1,3-dioxoisoindolin-4-yl)oxy)acetamido)propyl)carbamoyl)phenyl)-4-(phenylamino)quinoline-3-carboxamide] showed a DC50 of under 100 nM.

The compound `NC(=O)c1cnc2ccc(-c3ccc(C(=O)NCCCNC(=O)CNc4cccc5c4C(=O)N(C4CCC(=O)NC4=O)C5=O)cc3)cc2c1Nc1ccccc1` (stereo not shown) [Compound 307, 6-(4-((3-(2-((2-(2,6-dioxopiperidin-3-yl)-1,3-dioxoisoindolin-4-yl)amino)acetamido)propyl)carbamoyl)phenyl)-4-(phenylamino)quinoline-3-carboxamide] showed a DC50 of under 100 nM.

Compound `NC(=O)c1cnc2ccc(-c3ccc(C(=O)N[C@H]4CC[C@@H](NC(=O)CNC(=O)COc5cccc6c5C(=O)N(C5CCC(=O)NC5=O)C6=O)CC4)cc3)cc2c1Nc1ccccc1` (stereo partly shown) [Compound 308, 6-(4-(((1s,4s)-4-(2-(2-((2-(2,6-dioxopiperidin-3-yl)-1,3-dioxoisoindolin-4-yl)oxy)acetamido)acetamido)cyclohexyl)carbamoyl)phenyl)-4-(phenylamino)quinoline-3-carboxamide] had a DC50 of under 100 nM.

For the compound `NC(=O)c1cnc2ccccc2c1Nc1ccc(-c2ccc(C(=O)NCCCCNC(=O)COc3cccc4c3C(=O)N(C3CCC(=O)NC3=O)C4=O)cc2)cc1` (stereo not shown) [Compound 309, 4-[4-[4-[4-[[2-[2-(2,6-dioxo-3-piperidyl)-1,3-dioxo-isoindolin-4-yl]oxyacetyl]amino]butylcarbamoyl]phenyl]anilino]quinoline-3-carboxamide], the DC50 is under 100 nM.

As to `NC(=O)c1cnc2ccc(N3CCN(C(=O)CCCCCNC(=O)COc4cccc5c4C(=O)N(C4CCC(=O)NC4=O)C5=O)CC3)cc2c1Nc1ccccc1` (stereo not shown) [Compound 310, 6-(4-(6-(2-((2-(2,6-dioxopiperidin-3-yl)-1,3-dioxoisoindolin-4-yl)oxy)acetamido)hexanoyl)piperazin-1-yl)-4-(phenylamino)quinoline-3-carboxamide], the DC50 was under 1000 nM.

Take `CN(CC(=O)NCCOCCNC(=O)c1ccc(-c2ccc3ncc(C(N)=O)c(Nc4ccccc4)c3c2)cc1)c1cccc2c1C(=O)N(C1CCC(=O)NC1=O)C2=O` (stereo not shown) [Compound 311, 4-anilino-6-[4-[2-[2-[[2-[[2-(2,6-dioxo-3-piperidyl)-1,3-dioxo-isoindolin-4-yl]-methyl-amino]acetyl]amino]ethoxy]ethylcarbamoyl]phenyl]quinoline-3-carboxamide]: the DC50 was under 1000 nM.

`CN(CC(=O)NCCCCCC(=O)N1CCC(c2ccc3ncc(C(N)=O)c(Nc4ccccc4)c3c2)CC1)c1cccc2c1C(=O)N(C1CCC(=O)NC1=O)C2=O` (stereo not shown) [Compound 312, 4-anilino-6-[1-[6-[[2-[[2-(2,6-dioxo-3-piperidyl)-1,3-dioxo-isoindolin-4-yl]-methyl-amino]acetyl]amino]hexanoyl]-4-piperidyl]quinoline-3-carboxamide]: the DC50 was under 1000 nM.

Regarding `CNC(=O)c1cnc2ccc(-c3ccc(C(=O)NCCCCNC(=O)COc4cccc5c4C(=O)N(C4CCC(=O)NC4=O)C5=O)cc3)cc2c1Nc1ccccc1` (stereo not shown) [Compound 340, 4-anilino-6-[4-[4-[[2-[2-(2,6-dioxo-3-piperidyl)-1,3-dioxo-isoindolin-4-yl]oxyacetyl]amino]butylcarbamoyl]phenyl]-N-methyl-quinoline-3-carboxamide], the DC50 is under 100 nM.

In turn, `CNC(=O)c1cnc2ccc(-c3ccc(C(=O)NCCCC(=O)N4CCN(c5cccc6c5C(=O)N(C5CCC(=O)NC5=O)C6=O)CC4)cc3)cc2c1Nc1ccccc1` (stereo not shown) [Compound 343, 4-anilino-6-[4-[[4-[4-[2-(2,6-dioxo-3-piperidyl)-1,3-dioxo-isoindolin-4-yl]piperazin-1-yl]-4-oxo-butyl]carbamoyl]phenyl]-N-methyl-quinoline-3-carboxamide] returned a DC50 of under 100 nM.

`CNC(=O)c1cnc2cc(OC)c(-c3ccc(C(=O)NCCCCNC(=O)CNc4cccc5c4C(=O)N(C4CCC(=O)NC4=O)C5=O)cc3)cc2c1Nc1ccccc1` (stereo not shown) [Compound 344, 6-(4-((4-(2-((2-(2,6-dioxopiperidin-3-yl)-1,3-dioxoisoindolin-4-yl)amino)acetamido)butyl)carbamoyl)phenyl)-7-methoxy-N-methyl-4-(phenylamino)quinoline-3-carboxamide] showed a DC50 of under 100 nM.

As for `CNC(=O)c1cnc2cc(OC)c(-c3ccc(C(=O)NCCCCNC(=O)CN(C)c4cccc5c4C(=O)N(C4CCC(=O)NC4=O)C5=O)cc3)cc2c1Nc1ccccc1` (stereo not shown) [Compound 345, 6-(4-((4-(2-((2-(2,6-dioxopiperidin-3-yl)-1,3-dioxoisoindolin-4-yl)(methyl)amino)acetamido)butyl)carbamoyl)phenyl)-7-methoxy-N-methyl-4-(phenylamino)quinoline-3-carboxamide], the DC50 was under 100 nM.
